Legend:
[1] = target: mitochondrial RNA-polymerase (POLRMT) (Mus musculus, UniProt Q8BKF1); experiment: Homogeneous TR-FRET assay for mitochondrial transcription activity; type: biochemical; conditions: homogeneous TR-FRET assay according to Example 4; activity class
Method in brief: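 TR-FRET read-out (340 nm excitation, 665 nm emission) of a 407 bp transcript captured by Eu-streptavidin/biotin donor and ATTO647N acceptor DNA probes after EDTA stop. Transcription ran 2 h at RT with 500 μM […], mouse POLRMT/TFAM/TFB2M and LSP-plasmid template, after 10 min compound preincubation (10 μM or dilution series).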

[2] = test system: NCI-H596 (lung); experiment: CellTiter GLO viability assay, NCI-H596; type: cell-based; conditions: Homo sapiens, 144 h, read-out: IC50 (μM) incubation time 144 h
Protocol: (§1) The CellTiter-Glo Luminescent Cell Viability Assay (Promega) is a homogeneous method of determining the number of viable cells in culture. It is based on quantification of ATP, indicating the presence of metabolically active cells.
(§2) Cells were seeded on day 1 at cell numbers that assure assay linearity and optimal signal intensity. After incubation for 3 h in humidified chambers at 37° C./5% CO2 compounds/DMSO were added at different concentrations. […] Cells treated with the compound vehicle DMSO were used as positive controls and cells treated with 10 μM Staurosporine served as negative controls. […] Thereon, mixture and assay plates were equilibrated at room temperature for 20 min. Equal volumes of the reagent-medium-mixture was added to the volume of culture medium present in each well.
(§3) The plates were mixed at ˜200 rpm for 2 minutes on an orbital shaker. The microplates were then incubated at room temperature for 10 minutes for stabilization of the luminescent signal. Following incubation the luminescence is recorded on a Victor microplate reader (Perkin Elmer) using 200 ms integration time. The data were then analyzed with Excel using the XLFIT Plugin (dose response Fit 205) for IC50-determination. As quality control the Z′-factor was calculated from 16 positive and negative control values. Only assay results showing a Z′-factor≥0.5 were used for further analysis.

[3] = test system: NCI-H23 (lung); experiment: CellTiter GLO viability assay, NCI-H23; type: cell-based
Protocol: as §1, §2, §3

[4] = test system: HRT-18 (colon); experiment: CellTiter GLO viability assay, HRT-18; type: cell-based; conditions: Homo sapiens, 144 h, read-out: IC50 (μM) incubation time 144 h
Protocol: as §1, §2, §3

mitochondrial RNA-polymerase (POLRMT), sequence (Q8BKF1 42-1207): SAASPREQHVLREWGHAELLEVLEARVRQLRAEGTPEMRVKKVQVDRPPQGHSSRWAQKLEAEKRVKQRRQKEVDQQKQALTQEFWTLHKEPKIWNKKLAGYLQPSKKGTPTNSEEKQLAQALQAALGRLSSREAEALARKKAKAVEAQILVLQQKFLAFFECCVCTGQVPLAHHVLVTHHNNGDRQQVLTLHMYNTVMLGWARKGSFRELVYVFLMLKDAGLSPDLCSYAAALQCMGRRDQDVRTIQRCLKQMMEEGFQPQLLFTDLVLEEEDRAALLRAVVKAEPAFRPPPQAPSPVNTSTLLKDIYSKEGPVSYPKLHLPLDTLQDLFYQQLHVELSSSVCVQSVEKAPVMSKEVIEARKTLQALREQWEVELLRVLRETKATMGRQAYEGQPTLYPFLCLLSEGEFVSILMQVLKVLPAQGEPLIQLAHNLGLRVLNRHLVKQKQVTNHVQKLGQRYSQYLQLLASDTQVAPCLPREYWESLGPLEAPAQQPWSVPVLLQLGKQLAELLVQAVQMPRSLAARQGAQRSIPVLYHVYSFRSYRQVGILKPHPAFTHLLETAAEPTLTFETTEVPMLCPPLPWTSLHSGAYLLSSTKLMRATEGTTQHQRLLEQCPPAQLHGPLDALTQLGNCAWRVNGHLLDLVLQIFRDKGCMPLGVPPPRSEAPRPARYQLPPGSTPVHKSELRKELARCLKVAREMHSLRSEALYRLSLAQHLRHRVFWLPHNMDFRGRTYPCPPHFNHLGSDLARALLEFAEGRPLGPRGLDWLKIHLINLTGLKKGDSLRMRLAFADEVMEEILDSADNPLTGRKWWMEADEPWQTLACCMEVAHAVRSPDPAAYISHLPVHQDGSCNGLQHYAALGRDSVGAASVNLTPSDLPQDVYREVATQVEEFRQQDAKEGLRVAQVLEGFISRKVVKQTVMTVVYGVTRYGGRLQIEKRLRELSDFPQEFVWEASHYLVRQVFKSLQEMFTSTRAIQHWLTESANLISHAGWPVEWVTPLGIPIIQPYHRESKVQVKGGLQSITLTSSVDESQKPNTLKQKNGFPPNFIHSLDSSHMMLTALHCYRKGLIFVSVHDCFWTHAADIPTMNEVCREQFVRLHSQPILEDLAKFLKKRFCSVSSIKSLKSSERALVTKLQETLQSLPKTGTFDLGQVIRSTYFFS

C[C@@H](Oc1ccc2c(-c3ccc(F)cc3Cl)cc(=O)oc2c1)C(=O)N1CCC[C@H](C(=O)O)C1 [Compound 14, (3S)-1-[(2R)-2-[4-(2-chloro-4-fluoro-phenyl)-2-oxo-chromen-7-yl]oxypropanoyl]piperidine-3-carboxylic acid]
IC50 [1]: < 20 nM
IC50 [2]: 1 to 10 µM
IC50 ([3]; Homo sapiens, NCI-H23 (lung), 144 h, read-out: IC50 (μM) incubation time 144 h): 1 to 10 µM
sensitivity of the cell line (in words) ([3]; NCl-H23): moderate sensitivity
IC50 [4]: ≤ 0.1 µM

From patent US11111238B2, “Coumarin derivatives, processes for their preparation and uses thereof for the treatment of cancer” (Lead Discovery Center GmbH, priority 2017, dated 2021)
